# In patent US20110312974A1, “HETEROARYL ANTAGONISTS OF PROSTAGLANDIN D2 RECEPTORS” (AMIRA PHARMACEUTICALS, INC., priority 2008, published 2011):
# Target: T1, human DP2 receptor (Homo sapiens, UniProt Q9Y5Y4)
# T1 construct: expressed in transfected cells; membrane preparation
# T1 sequence (Q9Y5Y4 1-395): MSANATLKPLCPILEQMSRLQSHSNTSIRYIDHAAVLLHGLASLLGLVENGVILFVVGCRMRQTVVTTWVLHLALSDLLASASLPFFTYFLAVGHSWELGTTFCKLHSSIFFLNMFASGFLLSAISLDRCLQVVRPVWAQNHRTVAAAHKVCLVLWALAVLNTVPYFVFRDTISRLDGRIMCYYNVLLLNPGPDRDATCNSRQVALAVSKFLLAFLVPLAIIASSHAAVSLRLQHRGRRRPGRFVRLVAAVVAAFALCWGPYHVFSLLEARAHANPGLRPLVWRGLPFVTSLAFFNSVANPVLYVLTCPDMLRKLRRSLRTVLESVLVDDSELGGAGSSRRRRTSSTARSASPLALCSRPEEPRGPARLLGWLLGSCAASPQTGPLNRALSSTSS
# Experiment: DP2/CRTH2 radioligand binding assay using [3H]PGD2
# Settings: hDP2 (CRTH2) binding assay; membranes of HEK293 cells expressing recombinant human DP2, 1 nM [3H]PGD2
# Method: The ability of a compound to bind to the human DP2 receptor is assessed via a radioligand binding assay using [^3H]PGD2. HEK293 cells stably expressing recombinant human DP2 are resuspended in 10 mM Hepes, 7.4 containing 1 mM DTT, lysed and centrifuged at 75,000×g to pellet the membranes. The membranes are resuspended in 10 mM Hepes, 7.4 containing 1 mM DTT and 10% glycerol to approximately 5 mg protein/ml. Membranes (2-10 μg protein/well) are incubated in 96-well plates with 1 nM [^3H]PGD2 and test compound in Assay Buffer (50 mM Hepes, 10 mM MnCl2, 1 mM EDTA, plus or minus 0.2% human serum albumin, pH 7.4) for 60 minutes at room temperature. The reactions are terminated by rapid filtration through Whatman GF/C glass fibre filter plates. The filter plates were pre-soaked in 0.33% polythylenimine for 30 minutes at room temperature then washed in Wash Buffer (50 mM Hepes, 0.5 M NaCl pH 7.4) prior to harvesting. After harvesting, the filter plates are washed 3 times with 1 ml cold Wash Buffer then dried. Scintillant is then added to the plates and the radioactivity retained on the filters is determined on a Packard TopCount (Perkin Elmer). Specific binding is determined as total radioactive binding minus non-specific binding in the presence of 10 μM PGD2. IC50s were determined using GraphPad prism analysis of drug titration curves.
row,SMILES,IC50 [nM]
1,"CCN(Cc1cc(C(F)(F)F)ccc1-c1cc(CC(=O)O)ccn1)C(=O)C1CCC1 [Compound 1-36, (2-{2-[(N-Cyclobutanecarbonyl-N-ethyl-amino)-methyl]-4-trifluoromethyl-phenyl}-pyridin-4-yl)-acetic acid]",> 1000
2,"CCN(Cc1cc(C(F)(F)F)ccc1-c1cc(CC(=O)O)ccn1)C(=O)c1ccccc1 [Compound 1-37, (2-{2-[(N-Benzoyl-N-ethyl-amino)-methyl]-4-trifluoromethyl-phenyl}-pyridin-4-yl)-acetic acid]",> 1000
3,"COCC(=O)N(Cc1cnc(C)cn1)Cc1cc(C(F)(F)F)ccc1-c1cncc(CC(=O)O)c1 [Compound 1-60, [5-(2-{[N-(2-Methoxy-acetyl)-N-(5-methyl-pyrazin-2-ylmethyl)-amino]-methyl}-4-trifluoromethyl-phenyl)-pyridin-3-yl]-acetic acid]",300 to 1000
4,"CCN(Cc1cc(C(F)(F)F)ccc1-c1c(C)nn(CC(=O)O)c1C)C(=O)C1CC1 [Compound 3-2, (4-{2-[(N-Cyclopropanecarbonyl-N-ethyl-amino)-methyl]-4-trifluoromethyl-phenyl}-3,5-dimethyl-pyrazol-1-yl)-acetic acid]",> 1000
5,"CCN(Cc1cc(C(F)(F)F)ccc1-c1cc(CC(=O)O)ccn1)C(=O)NCc1ccccc1 [Compound 1-34, {2-[2-(3-Benzyl-1-ethyl-ureidomethyl)-4-trifluoromethyl-phenyl]-pyridin-4-yl}-acetic acid]",> 1000
6,"O=C(O)Cc1cncc(-c2ccc(C(=O)N3CCCC3)cc2CN(Cc2ccccc2)C(=O)C2CC2)c1 [Compound 1-8, {5-[2-[(N-Benzyl-N-cyclopropanecarbonyl-amino)-methyl]-4-(pyrrolidine-1-carbonyl)-phenyl]-pyridin-3-yl}-acetic acid]",300 to 1000
7,"CCN(Cc1cc(F)ccc1-c1cncc(C(C)C(=O)O)c1)C(=O)OCc1ccccc1 (stereo not shown) [Compound 1-11, 2-(5-{2-[(N-Benzyloxycarbonyl-N-ethyl-amino)-methyl]-4fluoro-phenyl}-pyridin-3-yl)-propionic acid]",< 300
8,"CS(=O)(=O)NCc1ccc(-c2cncc(CC(=O)O)c2)c(CN(Cc2ccccc2)C(=O)C2CC2)c1 [Compound 1-10, {5-[2-[(N-Benzyl-N-cyclopropanecarbonyl-amino)-methyl]-4-(methanesulfonylamino-methyl)-phenyl]-pyridin-3-yl}-acetic acid]",> 1000

# Now from value to compound:
row,IC50 [nM],SMILES
1,< 300,"CC(=O)N(Cc1ccccn1)Cc1cc(C(F)(F)F)ccc1-c1cncc(CC(=O)O)c1 [Compound 1-53, (5-{2-[(N-Acetyl-N-pyridin-2-ylmethyl-amino)-methyl]-4-trifluoromethyl-phenyl}-pyridin-3-yl)-acetic acid]"
2,< 300,"CCN(Cc1cc(C(F)(F)F)ccc1-c1cc(CC(=O)O)cnc1OCc1ccccc1)C(=O)C1CC1 [Compound 1-68, (6-Benzyloxy-5-{2-[(N-cyclopropanecarbonyl-N-ethyl-amino)-methyl]-4-trifluoromethyl-phenyl}-pyridin-3-yl)-acetic acid]"
3,< 300,"CC(=O)N(CCc1ccccc1)Cc1cc(C(F)(F)F)ccc1-c1cncc(CC(=O)O)c1 [Compound 1-27, (5-{2-[(N-Acetyl-N-phenethyl-amino)-methyl]-4-trifluoromethyl-phenyl}-pyridin-3-yl)-acetic acid]"
4,< 300,"CC(=O)N(Cc1ccc(C(F)(F)F)nc1)Cc1cc(C(F)(F)F)ccc1-c1cncc(CC(=O)O)c1 [Compound 1-62, [5-(2-{[N-Acetyl-N-(6-trifluoromethyl-pyridin-3-ylmethyl)-amino]-methyl}-4-trifluoromethyl-phenyl)-pyridin-3-yl]-acetic acid]"
5,< 300,"O=C(O)Cc1cncc(-c2ccc(C(F)(F)F)cc2CN(C(=O)C2CC2)C2Cc3ccccc3C2)c1 [Compound 1-24, (5-{2-[(N-Cyclopropanecarbonyl-N-indan-2-yl-amino)-methyl]-4-trifluoromethyl-phenyl}-pyridin-3-yl)-acetic acid]"
